{"source": "paper PMC8989696", "about": "“Characterization of furathiocarb metabolism in in-vitro human liver microsomes and recombinant cytochrome P450 enzymes” (Toxicology Reports, 2022)", "key": {"[1]": {"test_system": "human CYP activities other than CYP1A2, CYP2B6, CYP2C9, CYP2C19", "experiment": "N-in-one CYP inhibition assay, pooled human hepatic microsomes, other CYP activities", "type": "in vitro ADME", "conditions": "pooled human liver microsomes (n = 10), pH 7.4, furathiocarb 1–100 µM, read-out: Other IC50 values (remaining CYP activities of N-in-one assay)", "protocol": "N-in-one (“cocktail”) assay for measuring major CYP activities simultaneously, [55], [56] was employed to investigate human CYP-furathiocarb inhibitory interactions in pooled human hepatic microsomes. Furathiocarb (ﬁnal concentrations in the incubation mixture were 1, 5, 25, 50, and 100 µM) was added to the incubation mixture. The N-in-one was used earlier for the study of pesticide interactions and the details of the incubations with furathiocarb are described in Supplementary materials.\n(§1) The kinetic parameters Vmax and Km were calculated by nonlinear regression. Bivariate linear Pearson’s correlation coefﬁcients (r2) were calculated between metabolite formations and model activities in the livers. GraphPad Prism 9 Software (Inc., San Diego, CA) Prism 9.0.0 (San Diego, CA) was used for kinetic parameters and correlation coefﬁcients analysis. The IC50 values were determined by linear regression analysis using OriginPro 2020 (MicroCal Software, Inc., Northampton, MA.\nN-in-one assay was performed to investigate human CYP-furathiocarb inhibitory interactions. Furathiocarb (ﬁnal concentrations in the incubation mixture were 1, 5, 25, 50, and 100 µM) was added to the incubation mixture.\nThe N-in-one assay, analytical method and authentic standards have been described previously (Abass and Pelkonen 2013; Tolonen et al. 2007; Turpeinen et al. 2005). […]"}, "[2]": {"experiment": "Correlation of furathiocarb metabolite formation with model CYP substrate activities in ten human hepatic microsomes", "type": "in vitro ADME", "conditions": "20 min, n = 10; for Linear correlation coefficient, Carbofuran metabolic pathway: 50 μM furathiocarb", "protocol": "A set of ten livers was used to assess the metabolism of furathiocarb in the individual livers as well as to correlate the activities with a model CYP substrate. (Detailed information is available as Supplementary materials).\nas §1\nMetabolites of bupropion, amodiaquine, tolbutamide, omeprazole, dextromethorphan, chlorzoxazone, and midazolam were analyzed by a Shimadzu VP series high-performance liquid chromatograph with an autoinjector (Shimadzu, Kyoto, Japan). The analytical column was a Waters Symmetry C18 (3.9 mm x 150 mm, particle size of 5 µm) together with a Lichospher 100 RP-18 4.0 mm x 4.0 mm precolumn (Merck, Darmstadt, Germany). Chromatographic methods were isocratic, except in the case of omeprazole when a linear gradient elution from 15 to 35% A in 8 min was used. Mobile phases were pumped at a flow rate of 1.0 ml/min. The injection volume used was 20 µl. The concentrations of metabolites were calculated from peak height ratios of the UV chromatograms on the basis of standard calibration curves of authentic metabolites. Metabolites of ethoxyresorufin, ethoxycoumarin, coumarin, and pentoxyresorufin were analyzed fluorometrically. […] Fresh […] dilutions from stock solution of DMSO were used for each assay. The final amount of DMSO was 1% in incubation mixtures. For chlorzoxazone 6-hydroxylation the solvent was evaporated because of the potent inhibition effect of DMSO on CYP2E1, and the residue was diluted with 10 µl of lipid solution. Lipid solution was prepared by adding 8 µl of dimethyldioctadecylammonium-bromide in chloroform (100 mg/ml) to 200 µl L-α-phosphatidylethanolamine dioleyl [C18:1 (cis)-9] in chloroform. This mixture was evaporated with a stream of nitrogen flow, 2 ml of water was added, and the final mixture was sonicated (Branson Sonifier 250 GWB) on an ice bath for 10 min by using 50% power.\nCytochrome P450 enzyme activity characterizations as well as incubations with individual human hepatic microsomes were performed at the same time. A bank of 10 livers was used to assess the metabolism of furathiocarb in individual livers as well as to correlate the activities with model P450 substrate activities. A correlation was performed between the formation of furathiocarb metabolites and each CYP activity across the human liver set. For all data points the mean of duplicate incubations were used. […] Bivariate linear Pearson’s correlation coefficients (r) were calculated between metabolite formations and model activities in livers. […]"}}, "note": "Marks after values point to notes of the source that are not given here.", "data": [{"smiles": "CCCCOC(=O)N(C)SN(C)C(=O)Oc1cccc2c1OC(C)(C)C2", "note": "[furathiocarb, Furathiocarb]", "values": [{"measurement": "IC50 at 20 min", "setting": "[1]", "value": "> 100", "unit": "µM"}, {"measurement": "Linear correlation coefficient, Carbofuran metabolic pathway", "setting": "[2]; vs CYP1A1/2 7-Ethoxyresorufin-O-deethylation (EROD)", "value": 0.2493}, {"measurement": "Linear correlation coefficient, Carbofuran metabolic pathway", "setting": "[2]; vs CYP2A6 Coumarin-7-hydroxylation (OH-COU)", "value": 0.2303}, {"measurement": "Linear correlation coefficient, -OH/SO4 furathiocarb Metabolite B", "setting": "[2]; vs CYP2A6 Coumarin-7-hydroxylation (OH-COU), 100 μM furathiocarb", "value": 0.1259}, {"measurement": "Linear correlation coefficient, Carbofuran metabolic pathway", "setting": "[2]; vs CYP2B6 Bupropion hydroxylation (OH-BUP)", "value": 0.0023}, {"measurement": "Linear correlation coefficient, Carbofuran metabolic pathway", "setting": "[2]; vs CYP2C8 Amodiaquine-desethylation (deEt-AMO)", "value": 0.1814}, {"measurement": "Linear correlation coefficient, Carbofuran metabolic pathway", "setting": "[2]; vs CYP2C9 Tolbutamide hydroxylation (OH-TOL)", "value": 0.1126}, {"measurement": "Linear correlation coefficient, Carbofuran metabolic pathway", "setting": "[2]; vs CYP2C19 Omeprazole-5-hydroxylation (5-OH-OME), P < 0.0001", "value": "0.9074 **"}, {"measurement": "Linear correlation coefficient, -OH/SO4 furathiocarb Metabolite A", "setting": "[2]; vs CYP2C19 Omeprazole-5-hydroxylation (5-OH-OME), 100 μM furathiocarb", "value": 0.4683}, {"measurement": "Linear correlation coefficient, Carbofuran metabolic pathway", "setting": "[2]; vs CYP2D6 Dextromethorphan-O-desmethylation (O-dem-DEX)", "value": 0.0059}, {"measurement": "Linear correlation coefficient, Carbofuran metabolic pathway", "setting": "[2]; vs CYP2E1 Chlorzoxazone-6-hydroxylation (OH-CLZ)", "value": 0.1101}, {"measurement": "Linear correlation coefficient, Carbofuran metabolic pathway", "setting": "[2]; vs CYP3A4 Midazolam-1'-hydroxylation (1-OH-MDZ), P = 0.0001", "value": "0.8513 *"}, {"measurement": "Linear correlation coefficient, -OH/SO4 furathiocarb Metabolite B", "setting": "[2]; vs CYP3A4 Midazolam-1'-hydroxylation (1-OH-MDZ), 100 μM furathiocarb", "value": 0.3282}, {"measurement": "Linear correlation coefficient, Carbofuran metabolic pathway", "setting": "[2]; vs CYP3A4 Omeprazole sulfoxidation (SO2-OME), P < 0.0001", "value": "0.9632 **"}, {"measurement": "Linear correlation coefficient, -OH/SO4 furathiocarb Metabolite B", "setting": "[2]; vs CYP3A4 Omeprazole sulfoxidation (SO2-OME), 100 μM furathiocarb", "value": 0.2793}]}]}
